Measurements published in patent US6783949B1, “Processes for determining whether a test substance contains lipases or lipase inhibitors” (Aventis Pharma Deutschland GmbH, priority 1999, dated 2004).

Target: T1, lipases, preferably HSL (Rattus norvegicus, UniProt P15304)
T1 sequence (P15304 1-768 isoform P15304-2): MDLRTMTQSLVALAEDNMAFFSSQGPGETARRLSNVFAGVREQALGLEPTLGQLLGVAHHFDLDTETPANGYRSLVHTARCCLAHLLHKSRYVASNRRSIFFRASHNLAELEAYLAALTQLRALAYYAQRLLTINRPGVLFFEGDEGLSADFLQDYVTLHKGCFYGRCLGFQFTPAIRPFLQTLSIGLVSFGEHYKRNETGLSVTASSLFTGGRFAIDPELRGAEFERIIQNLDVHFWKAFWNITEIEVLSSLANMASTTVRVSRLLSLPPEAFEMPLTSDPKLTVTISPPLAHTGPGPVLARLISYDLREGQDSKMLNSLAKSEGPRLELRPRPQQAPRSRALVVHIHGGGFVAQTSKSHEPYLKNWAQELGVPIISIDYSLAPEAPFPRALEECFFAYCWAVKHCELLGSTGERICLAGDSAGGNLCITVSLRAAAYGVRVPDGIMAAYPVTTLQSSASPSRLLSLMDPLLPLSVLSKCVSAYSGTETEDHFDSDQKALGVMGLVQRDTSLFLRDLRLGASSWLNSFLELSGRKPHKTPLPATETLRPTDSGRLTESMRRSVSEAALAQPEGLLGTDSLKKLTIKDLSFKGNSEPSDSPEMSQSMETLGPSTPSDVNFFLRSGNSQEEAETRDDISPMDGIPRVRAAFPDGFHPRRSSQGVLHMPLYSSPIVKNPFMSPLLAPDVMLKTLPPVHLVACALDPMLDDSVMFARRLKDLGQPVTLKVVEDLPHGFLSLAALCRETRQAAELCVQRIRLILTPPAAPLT
Experiment: Synthesized NBD-acylglycerides as substrates of lipases
Format: biochemical

SMILES | Activity as substrate of lipases
CC(=O)OCC(COC(=O)CCCCCCCCCCCNc1ccc([N+](=O)[O-])c2nonc12)OC(C)=O (centres unmarked) [Compound (4), 2-Acetoxy-3-[12-(7-nitrobenzo[1,2,5]oxadiazol-4-ylamino)-dodecanoyloxy]propyl acetate] | decrease in activity
O=C(CCCCCCCCCCCNc1ccc([N+](=O)[O-])c2nonc12)OC[C@@H](O)CO [(3a), (S)-2,3-Dihydroxypropyl 12-(7-nitrobenzo[1,2,5]oxadiazol-4-ylamino) dodecanoate] | identical biological activity
